# Laboratory results as given in US20230138400A1, “METHODS AND PHARMACEUTICAL COMPOSITIONS FOR REPROGRAMING IMMUNE ENVIRONMENT IN A SUBJECT IN NEED THEREOF” (INSERM (INSTITUT NATIONAL DE LA SANTE ET DE LA RECHERCHE …, priority 2016, published 2023).
# Legend:
# E0771 tumors = assay: Immune cells infiltrated into E0771 tumors (wild type, sh control, sh LXR) after DDA, flow cytometry; format: in vivo, mouse
# Text: FIGS. 14A-D. […] mice were grafted subcutaneously with 300 000 E0771 tumor cells knocked down for the LXR (E0771 sh LXR) or with control cells (E0771 Sh control). […] 15 days post DDA treatment, the tumor cells were collected to assess by flow cytometry the CD4 Th1 cells (CD4+ Tbet+), CD4 T regulatory (Treg: CD4+ Foxp3+), CD8 T cells cytotoxic (CTL: CD8+ granzyme +)) or not (non CTL: CD8+ Granzyme −), macrophage M1 (F4/80+ CD206− CD86+) and M2 (F4/80+ CD206+ CD86−), dendritic cells CD11c+, CD11c+CD8α+ and myeloid derived suppressive cells (MDSC: CD11b+CD11clow, LY6C+ly6Gint) infiltrated into the tumors. To observe the cytotoxic CD8 T cells, the tumor suspension was prealably stimulated 2 h in vitro with a cocktail of PMA (50 ng/ml), ionomycine (500 ng/ml) and golgistop (concentration from manufacture BD Pharmagen), then the cells were stained with specific antibodies. The bars graphs represent the ratio between (A) Th1 and Treg, (B) CTL and non CTL, (C) M1 and M2 and (D) Alls DCs (CD11c+ and CD11c+ CD8α+) and MDSC infiltrated inside the tumors: E0771 sh control or E0771 Sh LXR (knocked down for LXRβ) from mice treated or not with DDA at 0.37 ug/kg. In cells expressing the LXRβ (E0771 shcontrol cells), DDA increases the infiltration of activated immune cells (Th1, CTL, macrophages M1 and DC) and decreases the infiltration of immunosuppressives cells (Treg, non CTL, M2 and MDSC).
# FIGS. 15A-D. DDA treatment decreases the percentage of T regulatory CD4 T cells and increases the activated CD4+ and CD8+ T cells inside tumors. […] When tumors were palpable (50 mm3), the animals were treated with the vehicle (empty symbol) or s.c. 0.37 μg/kg of DDA (full symbol) every 2 days, once a day. […] post treatment, the animals were sacrified to collect the tumors. The tumors were dissociated by using gentlemac technology (Miltenyi) and then the suspension of tumor cells were stimulated with 50 ng/ml of PMA (Sigma), 500 ng/ml Ionomycin (Sigma) and 1/1000 of golgi stop (ebiosicence) during 3 h at 37° C. Tumor infiltrated Lymphocytes (TIL) isolated from E0711 tumors were stained with antibodies against CD45, CD8, CD4, PD-1, Foxp3, T-bet, IFN-g, Granzym B, PD-1 as well as live/dead stain. By gating on CD45+CD4+ (A-B) or CD45+CD8+ T cells populations (C-D), the tumor-infiltrating (A) T regulatory cells (Treg; Foxp3+), (B) effector CD4+ cells (Th1; T-bet+) and (C) cytotoxic CD8 T cells (CTL; IFN-γ+Granzym B+) were analyzed by flow cytometry. The vehicle condition is normalized at 1 and the graphs are representative of three independent experiments. (D). The graph represents the percentage of PD-1 negative CD8+ cells inside tumors of mice treated with vehicle or DDA and is representative of three independent experiments.
# FIGS. 17A-D. The silencing of LXRβ in tumor affects the effects of DDA on T regulatory and cytotoxic CD8+ T cells population infiltrated inside tumor. Animals grafted with E0711 tumors expressing the LXRβ (square symbol) or knockdown for the LXRβ expression (circle symbol) treated in FIG. 2 were sacrified to collect tumors, 15 days post treatment with the vehicle (empty symbol) or 0.37 μg/kg of DDA (full symbol). The tumor were dissociated by using gentlemac technology (Miltenyi), and the suspension of tumor cells obtained were stimulated with 50 ng/ml of PMA (Sigma), 500 ng/ml Ionomycin (Sigma) and 1/1000 of golgi stop (ebiosicence) during 3 h at 370 to analyze by flow cytometry the phenotype of tumor-infiltrated lymphocytes. By gating on CD45+CD4+ (A-B) or CD45+CD8+ T cells populations (C-D) as well as live/dead stain, the tumor-infiltrating (A) T regulatory cells (Treg; Foxp3+), (B) effector CD4+ cells (Th1; T-bet+) and (C) cytotoxic CD8 T cells (CTL; IFN-γ+Granzym B+) were determined.
# tumor side lymph nodes = assay: T cells in tumor side lymph nodes after DDA, flow cytometry; format: in vivo, mouse
# Procedure: FIGS. 20A-C. The priming of T cells inside tumor side lymph node is dependent of the LXR expressed by tumor cells. Animals were grafted with tumor cells and treated as described in FIG. 2. At the end of the experiments, tumor side lymph nodes (mesenteric, auxiliary and brachial) were collected, dissociated and stimulated in vitro with 50 ng/ml of PMA (Sigma), 500 ng/ml Ionomycin (Sigma) and 1/1000 of golgi stop (ebiosicence) during 3 h at 370 to analyze by flow cytometry the phenotype of T cells. (A-C) The dots in the graphs represent the relative number of (A) T regulatory cells (CD4+ Foxp3+), (B) Th1 CD4+ cells (CD4+ T-bet+) and (C) cytotoxic CD8+ T cells (CD8+ Granzym B+ IFNγ+). The vehicle was normalized to 1. Graphs are representative of three independent experiments.
# Organ dissociation and flow cytometry. The tumor-side lymph nodes were dissociated manually while for the tumor, gentlemac technology (Miltenyi) was used. Then, the suspension of tumor cells or lymph node were stimulated with 50 ng/ml of PMA (Sigma), 500 ng/ml Ionomycin (Sigma) and 1/1000 of golgi stop (ebiosicence) during 3 h at 37° C. After that, the single cell suspension were stained with the indicated fluorescent-labelled antibodies: anti mouse α-CD4, α-CD8, α-T-bet, α-Foxp3, α-granzyme B, α-PD-1, α-CD44, α-Ly6C, α-Ly6G, α-CD11b, α-CD11c, α-CD206 IL10, α-CD86 as well as live/dead stain purchased from eBioscience or Biolegend. Intracellular staining for T-bet, Foxp3, and Granzyme B, was performed according the manufacturer's protocol from Biolegend. To set the gates, flow cytometry dot plots were based on comparison with isotype control. Flow cytometry measurements of single-cells suspension were performed on a Fortessa 20X (BD pharmingen) and data were analyzed using FlowJo software.
# [1] = E0771 shcontrol, 0.37 μg/kg DDA every 2 days, 15 days (FIG. 14)
# [2] = decrease expression of LXRB into the tumors (FIG. 17)
# [3] = tumors expressing LXRβ, 0.37 μg/kg DDA, 15 days (FIG. 17)
# [4] = wild type E0771, s.c. 0.37 μg/kg DDA every 2 days (FIG. 15)
smiles,measurement,setting,value
"CC(C)CCCC(C)[C@H]1CCC2C3C[C@@H](NCCc4cnc[nH]4)[C@@]4(O)C[C@@H](O)CC[C@]4(C)C3CC[C@@]21C (stereo partly shown) [DDA, 5a-hydroxy-6b-[2-(1H-imidazol-4-yl)ethylamino]cholestan-3b-ol]",number of macrophages M1 infiltrated into the tumors,E0771 tumors; 0.37 μg/kg DDA (FIG. 18),increases
same,ratio of dendritic cells CD11+ versus MDSC,E0771 tumors; 0.37 μg/kg DDA (FIG. 19),increases
same,effect of DDA on immune cell infiltration,E0771 tumors; E0771 shLXR cells (FIG. 14),significantly decreased
same,"infiltration of activated immune cells (Th1, CTL, macrophages M1 and DC)",E0771 tumors; [1],increases
same,"infiltration of immunosuppressives cells (Treg, non CTL, M2 and MDSC)",E0771 tumors; [1],decreases
same,effect of DDA on T regulatory cells infiltrated into the tumors,E0771 tumors; [2],abolished
same,effect of DDA on activated cytotoxic CD8+ T cells infiltrated into the tumors,E0771 tumors; [2],abolished
same,influence of decreased LXRB expression on DDA effect on effector Th1CD4+,E0771 tumors; [2],had no effect
same,LXRβ dependence of effect on macrophages M2,E0771 tumors; shLXRβ vs LXRβ expressing tumors (FIG. 18),independent of the LXRβ
same,number of T regulatory cells infiltrated into the tumors,E0771 tumors; [3],decreases
same,number of activated cytotoxic CD8+ T cells infiltrated into the tumors,E0771 tumors; [3],increases
same,number of effector Th1CD4+ cells infiltrated into the tumors,E0771 tumors; [3],increases
same,activated CD4+ T cells inside tumors,E0771 tumors; [4],increases
same,activated CD8+ T cells inside tumors,E0771 tumors; [4],increases
same,number of T regulatory CD4 T cells inside tumors,E0771 tumors; [4],decreases
same,number of Th1CD4+ cells infiltrated into tumor side lymph nodes,tumor side lymph nodes; 0.37 μg/kg DDA (FIG. 20),increases
same,number of Treg cells infiltrated into tumor side lymph nodes,tumor side lymph nodes; 0.37 μg/kg DDA (FIG. 20),decreases
same,number of cytotoxic CD8 T cells infiltrated into tumor side lymph nodes,tumor side lymph nodes; 0.37 μg/kg DDA (FIG. 20),increases
same,LXRβ dependence of priming of T cells inside tumor side lymph nodes,tumor side lymph nodes; shLXRβ vs LXRβ expressing tumors (FIG. 20),dependent of the LXRβ
